Broadly, the IC50 is the point on the concentration scale where inhibition reaches its midpoint.

Among the data in patent publication US20080119515A1, “Heterocyclic Kinase Inhibitors: Methods of Use and Synthesis” (priority 2003, published 2008) are IC50 values, retold here.

In the experiment the target is T1, ZAP-70 (Homo sapiens, UniProt P43403).
T1 sequence (P43403 1-619): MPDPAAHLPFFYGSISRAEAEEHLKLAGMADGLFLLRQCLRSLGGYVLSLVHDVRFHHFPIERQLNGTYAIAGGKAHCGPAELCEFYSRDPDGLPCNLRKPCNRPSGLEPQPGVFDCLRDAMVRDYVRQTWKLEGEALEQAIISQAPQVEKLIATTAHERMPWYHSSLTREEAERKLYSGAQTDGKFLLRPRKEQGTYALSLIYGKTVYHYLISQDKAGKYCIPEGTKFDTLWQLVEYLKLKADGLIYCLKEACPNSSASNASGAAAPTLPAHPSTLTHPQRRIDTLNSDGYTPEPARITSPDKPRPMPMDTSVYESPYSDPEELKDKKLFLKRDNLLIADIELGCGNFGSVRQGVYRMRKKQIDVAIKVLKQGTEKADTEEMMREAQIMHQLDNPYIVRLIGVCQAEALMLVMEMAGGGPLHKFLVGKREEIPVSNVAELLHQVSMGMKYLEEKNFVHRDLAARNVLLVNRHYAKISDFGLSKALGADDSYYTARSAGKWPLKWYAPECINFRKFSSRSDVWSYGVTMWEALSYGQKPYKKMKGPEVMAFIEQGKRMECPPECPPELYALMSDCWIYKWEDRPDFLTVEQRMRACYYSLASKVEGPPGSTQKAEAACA
As to the kind of experiment: DELFIA assay (ZAP-70 kinase, phosphorylation of biotinylated poly(glu,tyr)). The conditions noted are these: ZAP-70 DELFIA, class symbols; read-out: Activity (IC50 in vitro). Format: biochemical. Summed up:
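3.1 nM ZAP-70 pre-incubated 10 min at room temperature with compound ([…]) and 62.5 nM biotinylated poly(glu,tyr) in 62.5 mM Mops pH 7.0, 12.5 mM MgCl2, 12.5% glycerol, 6.25% DMSO (pre-incubation concentrations); ATP added from 5 mM stock, 30 min reaction, EDTA stop. Phosphorylation read by DELFIA europium anti-phosphotyrosine fluorescence (340/615).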
For `CN(Cc1ccccc1)c1cc(C(=O)N2CCC[C@H]2CN2CCCC2)c2cc(Oc3ccccc3)ccc2n1` [Compound 129], the IC50 fell in the range of 1 to 10 µM.

In the case of `O=C(c1cc(/C=C/c2ccccc2)nc2ccc(-c3ccc4c(c3)OCO4)cc12)N1CCC[C@H]1CN1CCCC1` [Compound 130], the concentration for half-maximal inhibition (IC50) fell in the range of 1 to 10 µM.

On to `O=C(c1cc(/C=C/c2ccc(F)cc2)nc2ccc(-c3ccc4c(c3)OCO4)cc12)N1CCC[C@H]1CN1CCCC1` [Compound 131], for which the IC50 is 1 to 10 µM. For the compound `O=C(c1cc(/C=C/c2ccc(Cl)cc2)nc2ccc(-c3ccc4c(c3)OCO4)cc12)N1CCC[C@H]1CN1CCCC1` [Compound 132], the IC50 lay within 1 to 10 µM.

Consider `O=C(c1cc(/C=C/c2ccc(C(F)(F)F)cc2)nc2ccc(-c3ccc4c(c3)OCO4)cc12)N1CCC[C@H]1CN1CCCC1` [Compound 133], for which the half-maximal inhibitory concentration (IC50) lay within 1 to 10 µM.

As to `O=C(c1cc(CCc2ccccc2)nc2ccc(-c3ccc4c(c3)OCO4)cc12)N1CCC[C@H]1CN1CCCC1` [Compound 134], the concentration for half-maximal inhibition (IC50) fell in the range of 1 to 10 µM. To `O=C(c1cc(CCc2ccc(F)cc2)nc2ccc(-c3ccc4c(c3)OCO4)cc12)N1CCC[C@H]1CN1CCCC1` [Compound 135] belongs 1 to 10 µM; to `O=C(c1cc(CCc2ccc(Cl)cc2)nc2ccc(-c3ccc4c(c3)OCO4)cc12)N1CCC[C@H]1CN1CCCC1` [Compound 136], 1 to 10 µM; to `O=C(c1cc(CCc2ccc(C(F)(F)F)cc2)nc2ccc(-c3ccc4c(c3)OCO4)cc12)N1CCC[C@H]1CN1CCCC1` [Compound 137], 1 to 10 µM.

For `NC(=O)c1cc(C(=O)N2CCC[C@H]2CN2CCCC2)c2cc(-c3ccc4c(c3)OCO4)ccc2n1` [Compound 138], the IC50 was over 10 µM.

`O=C(NCc1ccc(C(F)(F)F)cc1)c1cc(C(=O)N2CCC[C@H]2CN2CCCC2)c2cc(-c3ccc4c(c3)OCO4)ccc2n1` [Compound 139]: the concentration for half-maximal inhibition (IC50) lay within 1 to 10 µM. Take `O=C(NCc1ccc(Cl)cc1)c1cc(C(=O)N2CCC[C@H]2CN2CCCC2)c2cc(-c3ccc4c(c3)OCO4)ccc2n1` [Compound 140]: the IC50 was under 1 µM. As to `O=C(NCCc1ccccc1)c1cc(C(=O)N2CCC[C@H]2CN2CCCC2)c2cc(-c3ccc4c(c3)OCO4)ccc2n1` [Compound 141], the IC50 was 1 to 10 µM. The value for `CC(CNC(=O)c1cc(C(=O)N2CCC[C@H]2CN2CCCC2)c2cc(-c3ccc4c(c3)OCO4)ccc2n1)c1ccccc1` (some centres unmarked) [Compound 142] was 1 to 10 µM.

Regarding `CCN(Cc1ccc(C)cc1)C(=O)c1cc(C(=O)N2CCC[C@H]2CN2CCCC2)c2cc(-c3ccc4c(c3)OCO4)ccc2n1` [Compound 143], the IC50 lay within 1 to 10 µM. The value for `O=C(Nc1ccccc1)c1cc(C(=O)N2CCC[C@H]2CN2CCCC2)c2cc(-c3ccc4c(c3)OCO4)ccc2n1` [Compound 144] was 1 to 10 µM; that for `O=C(c1cc(NCc2ccc(C(F)(F)F)cc2)nc2ccc(-c3ccc4c(c3)OCO4)cc12)N1CC2CC2[C@H]1CN1CCCC1` (some centres unmarked) [Compound 145] was 1 to 10 µM; that for `O=C(c1cc(NCc2ccc(Cl)cc2)nc2ccc(-c3ccc4c(c3)OCO4)cc12)N1CC2CC2[C@H]1CN1CCCC1` (some centres unmarked) [Compound 146] was 1 to 10 µM. The value for `C[C@H]1CCN(C(=O)c2cc(NCc3ccc(C(F)(F)F)cc3)nc3ccc(-c4ccc5c(c4)OCO5)cc23)[C@@H]1CN1CCCC1` [Compound 147] was 1 to 10 µM; that for `C[C@H]1CCN(C(=O)c2cc(NCc3ccc(Cl)cc3)nc3ccc(-c4ccc5c(c4)OCO5)cc23)[C@@H]1CN1CCCC1` [Compound 148] was 1 to 10 µM; that for `O=C(c1cc(NCc2ccc(C(F)(F)F)cc2)nc2ccc(-c3ccc4c(c3)OCO4)cc12)N1CC[C@H]1CN1CCCC1` [Compound 149] was 1 to 10 µM. The value for `CN(Cc1ccccc1)c1cc(C(=O)N2CCC[C@H]2CN2CCCC2)c2cc(-c3ccc(C#N)cc3)ccc2n1` [Compound 150] was over 10 µM; that for `COc1ccccc1CNc1cc(C(=O)N2CCC[C@H]2CN2CCCC2)c2cc(-c3ccc(C#N)cc3)ccc2n1` [Compound 151] was over 10 µM. For `COc1ccc(CNc2cc(C(=O)N3CCC[C@H]3CN3CCCC3)c3cc(-c4ccc(C#N)cc4)ccc3n2)cc1` [Compound 152], the IC50 is over 10 µM. Take `N#Cc1ccc(-c2ccc3nc(N4CCc5ccccc5C4)cc(C(=O)N4CCC[C@H]4CN4CCCC4)c3c2)cc1` [Compound 153]: the IC50 was over 10 µM.

In the case of `N#Cc1ccc(-c2ccc3nc(NCc4ccccc4)cc(C(=O)N4CCC[C@H]4CN4CCCC4)c3c2)cc1` [Compound 154], the concentration for half-maximal inhibition (IC50) was over 10 µM. `N#Cc1ccc(-c2ccc3nc(NC4Cc5ccccc5C4)cc(C(=O)N4CCC[C@H]4CN4CCCC4)c3c2)cc1` [Compound 155]: the IC50 was over 10 µM. To `N#Cc1ccc(-c2ccc3nc(NCCc4ccccc4Cl)cc(C(=O)N4CCC[C@H]4CN4CCCC4)c3c2)cc1` [Compound 156] belongs over 10 µM. With `N#Cc1ccc(-c2ccc3nc(NCc4cccc(C(F)(F)F)c4)cc(C(=O)N4CCC[C@H]4CN4CCCC4)c3c2)cc1` [Compound 157], the IC50 was over 10 µM. The value for `N#Cc1ccc(-c2ccc3nc(NCc4ccccc4F)cc(C(=O)N4CCC[C@H]4CN4CCCC4)c3c2)cc1` [Compound 158] was over 10 µM; that for `N#Cc1ccc(-c2ccc3nc(NCc4ccc(F)cc4)cc(C(=O)N4CCC[C@H]4CN4CCCC4)c3c2)cc1` [Compound 159] was over 10 µM; that for `COc1cccc(CNc2cc(C(=O)N3CCC[C@H]3CN3CCCC3)c3cc(-c4ccc(C#N)cc4)ccc3n2)c1` [Compound 160] was over 10 µM. With `N#Cc1ccc(-c2ccc3nc(NCc4cccc(F)c4)cc(C(=O)N4CCC[C@H]4CN4CCCC4)c3c2)cc1` [Compound 161], the IC50 is over 10 µM. As to `N#Cc1ccc(-c2ccc3nc(NCc4ccc(F)c(F)c4)cc(C(=O)N4CCC[C@H]4CN4CCCC4)c3c2)cc1` [Compound 162], the IC50 is over 10 µM. Take `N#Cc1ccc(-c2ccc3nc(NCc4cc(F)ccc4F)cc(C(=O)N4CCC[C@H]4CN4CCCC4)c3c2)cc1` [Compound 163]: the concentration for half-maximal inhibition (IC50) is over 10 µM. For `N#Cc1ccc(-c2ccc3nc(NCc4ccccc4C(F)(F)F)cc(C(=O)N4CCC[C@H]4CN4CCCC4)c3c2)cc1` [Compound 164], the IC50 is over 10 µM.

On to `N#Cc1ccc(-c2ccc3nc(NCc4cccc(Br)c4)cc(C(=O)N4CCC[C@H]4CN4CCCC4)c3c2)cc1` [Compound 165], for which the half-inhibitory concentration (IC50) was over 10 µM. To `N#Cc1ccc(-c2ccc3nc(NCc4ccc(Cl)cc4Cl)cc(C(=O)N4CCC[C@H]4CN4CCCC4)c3c2)cc1` [Compound 166] belongs over 10 µM; to `N#Cc1ccc(-c2ccc3nc(NCc4cccc(Cl)c4)cc(C(=O)N4CCC[C@H]4CN4CCCC4)c3c2)cc1` [Compound 167], over 10 µM. The value for `N#Cc1ccc(-c2ccc3nc(NCc4ccc(Cl)cc4)cc(C(=O)N4CCC[C@H]4CN4CCCC4)c3c2)cc1` [Compound 168] was over 10 µM; that for `N#Cc1ccc(-c2ccc3nc(NCc4ccccc4Cl)cc(C(=O)N4CCC[C@H]4CN4CCCC4)c3c2)cc1` [Compound 169] was over 10 µM; that for `N#Cc1ccc(-c2ccc3nc(NCCc4ccccc4)cc(C(=O)N4CCC[C@H]4CN4CCCC4)c3c2)cc1` [Compound 170] was over 10 µM.

Consider `CC[C@H](Nc1cc(C(=O)N2CCC[C@H]2CN2CCCC2)c2cc(-c3ccc(C#N)cc3)ccc2n1)c1ccccc1` [Compound 171], for which the IC50 is over 10 µM.

With `Cc1ccccc1CNc1cc(C(=O)N2CCC[C@H]2CN2CCCC2)c2cc(-c3ccc(C#N)cc3)ccc2n1` [Compound 172], the IC50 was over 10 µM. The value for `Cc1ccc(CCNc2cc(C(=O)N3CCC[C@H]3CN3CCCC3)c3cc(-c4ccc(C#N)cc4)ccc3n2)cc1` [Compound 173] was over 10 µM. To `N#Cc1ccc(-c2ccc3nc(NCCc4ccc(Cl)cc4)cc(C(=O)N4CCC[C@H]4CN4CCCC4)c3c2)cc1` [Compound 174] belongs over 10 µM. The value for `CN(CCc1ccccc1)c1cc(C(=O)N2CCC[C@H]2CN2CCCC2)c2cc(-c3ccc(C#N)cc3)ccc2n1` [Compound 175] was over 10 µM; that for `C[C@H](Nc1cc(C(=O)N2CCC[C@H]2CN2CCCC2)c2cc(-c3ccc(C#N)cc3)ccc2n1)c1ccccc1` [Compound 176] was over 10 µM.

Take `COc1ccc(CCNc2cc(C(=O)N3CCC[C@H]3CN3CCCC3)c3cc(-c4ccc(C#N)cc4)ccc3n2)cc1` [Compound 177]: the IC50 is over 10 µM. The value for `Cc1ccc(CNc2cc(C(=O)N3CCC[C@H]3CN3CCCC3)c3cc(-c4ccc(C#N)cc4)ccc3n2)cc1` [Compound 178] was over 10 µM; that for `N#Cc1ccc(-c2ccc3nc(NCc4ccc(F)c(Cl)c4)cc(C(=O)N4CCC[C@H]4CN4CCCC4)c3c2)cc1` [Compound 179] was over 10 µM. Take `N#Cc1ccc(-c2ccc3nc(NCc4ccc(Cl)cc4F)cc(C(=O)N4CCC[C@H]4CN4CCCC4)c3c2)cc1` [Compound 180]: the half-inhibitory concentration (IC50) is over 10 µM. In the case of `N#Cc1ccc(-c2ccc3nc(NCc4ccccc4Br)cc(C(=O)N4CCC[C@H]4CN4CCCC4)c3c2)cc1` [Compound 181], the IC50 was over 10 µM.
